{"source": "patent US3946013A", "about": "“1,3-BIS(Beta-ethylhexyl)-5-amino-5-methylhexahydropyrimidine-pyridine- 3-carboxylate, process for its preparation and pharmaceutical compositions containing this compound” (Wulfing; Johann A., priority 1973, dated 1976)", "key": {"[1]": {"test": "solubility (testability in the bacteriostatic test)", "format": "physicochemical", "conditions": "could not be tested in bacteriostatic test"}, "female NMRI mice": {"test_system": "female NMRI mice", "test": "LD50 acute toxicity in mice (Litchfield and Wilcoxon)", "format": "in vivo", "conditions": "for Toxicity, LD50 i.p. / Toxicity, LD50 p.o.: female NMRI mice 20-30 g, 10 days observation, 14400 min"}, "[2]": {"test": "antibacterial activity, general statement", "format": "cell-based"}, "[3]": {"test_system": "bacterial parent strains (Escherichia coli, Proteus vulgaris, Pseudomonas aeruginosa)", "test": "bacteriostatic activity (serial dilution in thioglycolate nutrient solution)", "format": "cell-based", "conditions": "for concentration at which activity is (still) shown (text): after 6 days at 30°C; for Bacteriostatic activity in relation to concentration (table): solutions containing 100 mg hexetidine, incubated at 30°C for 6 days", "method": "For a determination of bacteriostatic activity, solutions of hexetidine, hexetidine oxalate and hexetidine nicotinate having the following compositions were compared: The inoculum suspension was obtained by inoculation of a sterile Petri dish containing nutrient agar (standard I) with a test culture of bacterial parent strains (Escherichia coli, Proteus vulgaris, Pseudomonas aeruginosa) and incubation at 30°C for 24 hours. The suspension was either used immediately or stored at +4°C. The organisms grown in the Petri dish were elutriated with 5 ml physiological brine solution and diluted 1:10 with the same solution to a volume of 50 ml. Then 250 ml double concentrated thioglycolate solution (60 g/l) were mixed with 100 drops (about 5 ml) of the above 1:10 diluted primary culture of bacterial parent strains and shaken to obtain a uniform suspension. Serial dilutions were prepared for each of the above-mentioned compound solutions in the following concentrations, each comprising 10 test tubes of […]: hexetidine per ml: 1,000; 500; 250; 125; 62.5; about 31; about 16; about 8; about 4; about 2. Next, 5 ml double concentrated thioglycolate nutrient solution inoculated with the test organisms were added to each test tube by means of a pipet. Each test tube thus contained 50% of the final concentration. […]"}, "[4]": {"conditions": "Saski and Shah 1965; Barkley et al. 1960/1961; cited from earlier work"}, "[5]": {"test": "LD50 acute toxicity in mice (Litchfield and Wilcoxon)", "format": "in vivo", "conditions": "mouse, in vivo, po; female NMRI mice 20-30 g; 10 days observation"}, "[6]": {"conditions": "listed as Hexetidine nicotinate"}}, "note": "Where a name gives a salt, the structure may show the parent alone.", "data": [{"smiles": "CCCCC(CC)CN1CN(CC(CC)CCCC)CC(C)(N)C1", "note": "(stereo not drawn) [hexetidine cinnamate]", "values": [{"measurement": "solubility", "setting": "[1]", "result": "extreme insolubility"}, {"measurement": "Toxicity, LD50 i.p.", "setting": "female NMRI mice; listed as Hexetidine cinnamate", "result": 54, "unit": "mg/kg"}, {"measurement": "Toxicity, LD50 p.o.", "setting": "female NMRI mice; listed as Hexetidine cinnamate", "result": "1,740 mg/kg"}]}, {"smiles": "CCCCC(CC)CN1CN(CC(CC)CCCC)CC(C)(N)C1", "note": "(stereo not drawn) [hexetidine nicotinate, 1,3-bis(β-ethylhexyl)-5-amino-5-methylhexahydropyrimidine pyridine-3-carboxylate]", "values": [{"measurement": "antibacterial activity compared with hexetidine", "setting": "[2]", "result": "particularly favorable increase in antibacterial activity"}, {"measurement": "Toxicity, LD50 i.p.", "setting": "female NMRI mice; [6]", "result": 63, "unit": "mg/kg"}, {"measurement": "Toxicity, LD50 p.o.", "setting": "female NMRI mice; [6]", "result": "1,830 mg/kg"}, {"measurement": "toxicity of hexetidine after salt formation with nicotinic acid", "setting": "female NMRI mice; relative to hexetidine, mice", "result": "substantially reduced"}, {"measurement": "concentration at which activity is (still) shown (text)", "setting": "[3]; [6]", "result": "62.5 γ"}, {"measurement": "Bacteriostatic activity in relation to concentration (table)", "setting": "[3]; [6]", "result": "62.5 γ"}]}, {"smiles": "CCCCC(CC)CN1CN(CC(CC)CCCC)CC(C)(N)C1", "note": "(stereo not drawn) [hexetidine oxalate]", "values": [{"measurement": "Toxicity, LD50 i.p.", "setting": "female NMRI mice; listed as Hexetidine oxalate", "result": 23, "unit": "mg/kg"}, {"measurement": "Toxicity, LD50 p.o.", "setting": "female NMRI mice; listed as Hexetidine oxalate", "result": 970, "unit": "mg/kg"}, {"measurement": "concentration at which activity is (still) shown (text)", "setting": "[3]; listed as Hexetidine oxalate", "result": "> 500 γ"}, {"measurement": "Bacteriostatic activity in relation to concentration (table)", "setting": "[3]; listed as Hexetidine oxalate", "result": "500 γ"}]}, {"smiles": "CCCCC(CC)CN1CN(CC(CC)CCCC)CC(C)(N)C1", "note": "(stereo not drawn) [hexetidine, 1,3-bis(β-ethylhexyl)-5-amino-5-methylhexahydropyrimidine]", "values": [{"measurement": "antibacterial activity (words, literature)", "setting": "[4]", "result": "remarkable antibacterial activity"}, {"measurement": "Toxicity, LD50 i.p.", "setting": "female NMRI mice; listed as Hexetidine", "result": 33, "unit": "mg/kg"}, {"measurement": "LD50 at 240 h", "setting": "[5]", "result": 960, "unit": "mg/kg"}, {"measurement": "concentration at which activity is (still) shown (text)", "setting": "[3]", "result": "125 γ"}, {"measurement": "Bacteriostatic activity in relation to concentration (table)", "setting": "[3]; listed as Hexetidine", "result": "125 γ"}]}]}
